# Experimental data published in PMC12664280, “Integrative transcriptomics and peptidomics approach reveals unexpectedly diverse endogenous secretory peptides in Odorrana grahami frog skin” (BMC Biology, 2025).
# Where a SMILES comes first, the peptide text is derived from it. Bridges are numbered along the chain shown (N, C = ends). Where no end group is shown, it is not given here.
# Legend:
# [1] = system: Enterococcus faecalis ATCC 29212; assay: microbe, parasite or virus in culture; assay type: cell-based
# Protocol: (§1) Ranatuerin-2P-OG1 synthesis was performed by Royobiotech Co., Ltd. (Shanghai, China) using solid-phase peptide synthesis. The crude peptide was purified by RP-HPLC and its purity was confirmed to exceed 90% via ESI-MS analysis. Antimicrobial assays with various microbial strains were conducted, including gram-positive Staphylococcus aureus ATCC 29213 and its methicillin-resistant variant (MRSA) CIB 8546, Enterococcus faecalis ATCC 29212, gram-negative Pseudomonas aeruginosa ATCC 27853 and Escherichia coli ATCC 25922, and fungal Candida albicans CCMCC(F) 98001. Bacterial cultures were maintained in cation-adjusted Mueller-Hinton broth (MHB) at 35°C for 16-20 h, whereas fungal cultures were grown in Sabouraud dextrose broth (SDB) at 28°C for 48 h.
# [2] = system: Escherichia coli ATCC 25922; assay: microbe, parasite or virus in culture; assay type: cell-based
# Protocol: as §1
# [3] = system: Staphylococcus aureus ATCC 29213; assay: microbe, parasite or virus in culture; assay type: cell-based
# Protocol: as §1
# [4] = system: methicillin-resistant Staphylococcus aureus (MRSA) CIB 8546; assay: microbe, parasite or virus in culture; assay type: cell-based
# Protocol: as §1
# [5] = system: Pseudomonas aeruginosa ATCC 27853; assay: Antimicrobial assay, MIC by broth microdilution; assay type: cell-based; settings: ATCC27853, highest test concentration 128 μg/mL, read-out: minimum inhibitory concentration (MIC), Pseudomonas aeruginosa
# Protocol: as §1
# [6] = system: Candida albicans CCMCC(F) 98001; assay type: cell-based
# Protocol: as §1
# [7] = system: trypsin; settings: previously reported ESPs in Odorrana grahami, Table S1; cited from earlier work
# Source text: (§2) Supplement 12915_2025_2463_MOESM1_ESM.xlsx, sheet "Table S1" | column: Previously reported ESPs in Odorrana grahami
# [8] = system: skin wound; settings: previously reported ESPs in Odorrana grahami, Table S1; cited from earlier work
# Source text: Supplement 12915_2025_2463_MOESM1_ESM.xlsx, sheet "Table S1" | column: Previously reported ESPs in Odorrana grahami || The cathelicidin family: In this study, we report two new ESPs, OG-CATH1 and OG-CATH2, with OG-CATH1 corresponding to two precursor proteins. These peptides are similar to OL-CATH1 and OL-CATH2 from the skin of O. livida, and Cathelicidin-RC1 from frog L. catesbeianus (Fig. S12). However, they show low similarity (20.3%, data not shown) to Cathelicidin-OA1 from the skin of O. andersonii.
# [9] = system: NO release; settings: previously reported ESPs in Odorrana grahami, Table S1; cited from earlier work
# Source text: as §2
# [10] = previously reported ESPs in Odorrana grahami, Table S1; cited from earlier work
# Source text: as §2
# [11] = system: HaCat cells; set-up: method as in PMID 18455266; settings: mechanically injured HaCat cells; enhancing the expression of CXCL8, TGFβ, COX-2, VEGF and TLR2; ref [94]; cited from earlier work
compound,measurement,setting,value
"CC1(C)S[C@@H]2[C@H](NC(=O)[C@H](N)c3ccccc3)C(=O)N2[C@H]1C(=O)O [Ampicillin, reference compound]",MIC,"[1]; ATCC29212, broth microdilution, Enterococcus faecalis ATCC 29212, read-out: minimum inhibitory concentration (MIC), Enterococcus faecalis",2 µg/mL
same,MIC,"[2]; ATCC25922, broth microdilution, Escherichia coli ATCC 25922, read-out: minimum inhibitory concentration (MIC), Escherichia coli",8 µg/mL
same,MIC,"[3]; ATCC29213, broth microdilution, Staphylococcus aureus ATCC 29213, read-out: minimum inhibitory concentration (MIC), Staphylococcus aureus",1 µg/mL
same,MIC,"[4]; Staphylococcus aureus, broth microdilution, MRSA CIB 8546, read-out: minimum inhibitory concentration (MIC), MRSA",128 µg/mL
same,MIC,[5],> 128 µg/mL
CC[C@H](C)[C@H](NC(=O)[C@H](CCCCN)NC(=O)[C@H](CC(=O)O)NC(=O)[C@H](CCCCN)NC(=O)[C@@H](NC(=O)[C@@H](NC(=O)CNC(=O)[C@H](C)NC(=O)[C@@H](NC(=O)[C@H](CC(N)=O)NC(=O)[C@@H](NC(=O)[C@H](CC(C)C)NC(=O)[C@@H](NC(=O)[C@H](CC(N)=O)NC(=O)[C@H](CC(C)C)NC(=O)[C@@H](NC(=O)[C@@H](NC(=O)[C@H](CC(N)=O)NC(=O)[C@H](CCSC)NC(=O)[C@H](CC(C)C)NC(=O)CN)[C@@H](C)O)C(C)C)C(C)C)[C@@H](C)O)C(C)C)[C@@H](C)O)C(C)C)C(=O)N[C@@H](CCCCN)C(=O)N[C@H]1CSSC[C@@H](C(=O)O)NC(=O)CNC(=O)CNC(=O)[C@H]([C@@H](C)O)NC(=O)[C@H](Cc2ccccc2)NC(=O)[C@H](CCCCN)NC1=O [ranatuerin-2P-OG1] (H-GLMNTVLNVLTNVAGTVKDKIKCKFTGGC-OH; disulfide 23-29),"minimum inhibitory concentration (MIC), Enterococcus faecalis",[1]; ATCC 29212,256 µg/mL
same,"minimum inhibitory concentration (MIC), Escherichia coli",[2]; ATCC 25922,128 µg/mL
same,"minimum inhibitory concentration (MIC), Staphylococcus aureus",[3]; ATCC 29213,64 µg/mL
same,"minimum inhibitory concentration (MIC), MRSA",[4]; methicillin-resistant CIB 8546,64 µg/mL
same,"minimum inhibitory concentration (MIC), Candida albicans",[6],512 µg/mL
AALKGCWTKSIPPKPCFGKR [odorranain-B1],Functional effect: trypsin inhibitor,[7],trypsin inhibitor
APFRMGICTTN [odorregulin-E1],Functional effect: wound-healing,[8],wound-healing
ATAWDFGPHGLLPIRPIRIRPLCG [odorranain-M1],Functional effect: wound-healing,[8],wound-healing
"AVNIPFKVHFRCKAAFC (disulfide 12-17 (inferred)) [OGTI, FSAP family mature peptide identified via LC-MS/MS in O. grahami skin secretion]",Functional effect: trypsin inhibitor,[7],trypsin inhibitor
"GLFGKILGVGKKVLCGLSGMC (disulfide 15-21 (inferred)) [nigrocin-2GRb, FSAP family mature peptide identified via LC-MS/MS in O. grahami skin secretion]",Functional effect: inhibits NO release,[9],inhibits NO release
GLGGAKKNFIIAANKTAPQSVKKTFSCKLYNG [odorranain-E1],Functional effect: inhibits NO release,[9],inhibits NO release
RPPGFTPFR [Thr6-bradykinin],Functional effect: myotropic activities,[10],myotropic activities
RPPGLTPFR [Leu5Thr6-bradykinin],Functional effect: myotropic activities,[10],myotropic activities
YASPKCFRYPNGVLACT [odorranalectin],Functional effect: lectin,[10],lectin
bombesin,In vitro wound healing potential,[11],in vitro wound healing potential
